Broadly, the GI50 is the concentration at which growth is held to half of that of the control. The TGI is the concentration at which net growth stops. The low end stands for more potent growth arrest, the high end for less potent growth arrest.

What all share (assay): DTP human tumour cell line panel, 48 h
Assay [1] relates to HT29 colon.
Assay [2] relates to NCI-H522 lung.
Assay [3] concerns PC-3 prostate.
For assay [4], the system named is SF-539 CNS.
Assay [5] relates to SK-MEL-5 melanoma.
The test system of assay [6] is SW-620 colon.
Assay [7] concerns TK-10 renal.
For assay [8], the system named is UACC-62 melanoma.
Assay [9] deals with SNB-75 CNS.
Assay [10] relates to CAKI-1 renal.

Each structure is given as a SMILES string. Values joined by “and” are separate entries in the source; they are usually repeats but may differ in a detail not shown here. Equal entries are not always repeated.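 Method: 48-hour compound exposure of cells in 96-well plates, five concentrations, linear interpolation of endpoints. GI50: concentration for 50% inhibition of growth. TGI denotes the concentration required for complete inhibition of growth.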 Residues, ends and D or L forms follow the SMILES beside them. *: point of attachment. Cbz = O=C(OCc1ccccc1)*

Consider `CC(C)C[C@@H](C=O)NC(=O)[C@H](CC(C)C)NC(=O)[C@H](CC(C)C)NC(=O)OCc1ccccc1` (Cbz-Leu-Leu-Leu-aldehyde), for which the GI50 was 0.268 µM in [1]; 0.212 µM in assay [2]; 0.479 µM in [3]; 0.256 µM in assay [4]; 0.349 µM in assay [5]; 0.355 µM in assay [6]. The GI50 is 0.27 µM in [7] and 0.235 µM in assay [8]. Further, the TGI in assay [1] was 0.647 µM; in assay [2] it was 0.614 µM; in [3], 2.91 µM; in [4] it was 0.703 µM; in assay [5], 1.08 µM; in assay [6] it was 2.07 µM. Further, the TGI in assay [7] was 0.893 µM; in assay [8] it was 0.548 µM.
For `O=C1CC(CC(OCc2ccccc2)C(OCc2ccccc2)C(COCc2ccccc2)OCc2ccccc2)CC(=O)N1` (stereo not drawn), the TGI in assay [1] is 18 µM; in assay [3], > 100 µM and 38.5 µM; in [4], > 100 µM and 35.5 µM; in assay [5], > 100 µM and 25.6 µM; in assay [9], > 100 µM and 75.2 µM; in assay [6], > 100 µM and 23.9 µM. In addition, the TGI in assay [7] is over 100 µM. Moreover, the GI50 was > 100 µM and 11.3 µM in assay [3]; > 100 µM and 16.8 µM in [4]; > 100 µM and 12.6 µM in assay [5]; > 100 µM and 11.7 µM in [6].
Turning to `COC(=O)[C@@H](C)C[C@H](Cc1ccccc1)NC(=O)c1csc([C@@H](C[C@H](C(C)C)N(C)C(=O)[C@@H](NC(=O)[C@H]2CCCN2C)C2CC2)OC(C)=O)n1`, the GI50 in assay [1] is 0.000503 µM and 0.0025 µM; in [2], 0.000223 µM; in assay [3], 0.000545 µM and 0.0025 µM; in assay [4], 0.00172 µM and < 0.0025 µM; in assay [5], 0.000329 µM and < 0.0025 µM; in assay [9] it was 0.0025 µM. Moreover, the GI50 in [6] is 0.000508 µM and 0.0025 µM; in [8], 0.000445 µM and 0.0025 µM. Moreover, the TGI in [1] is over 25 µM; in assay [2], 0.000814 µM; in assay [3], over 25 µM; in [4], 0.00659 µM and < 0.0025 µM; in assay [9], over 25 µM; in [6] it was over 25 µM. For the same compound, the TGI in [7] and in assay [8] was over 25 µM throughout.
Turning to `O=C(O)Cc1ccc(N=Nc2c(O)c(C(=O)O)cc3ccccc23)cc1`, the TGI in [10], in assay [1], in assay [3], in assay [4], in assay [5] and in [9] was over 100 µM in each case. In addition, the TGI in assay [6], in assay [7] and in assay [8] was over 100 µM throughout.
`COc1cc2c(c(OC)c1OC)-c1c(c3ccc([N+](=O)[O-])cc3c(=O)n1CCCN)C2=O`: the GI50 was 0.895 µM in assay [10]; 9.63 µM in [2]; 7.68 µM in assay [3]; 1.38 µM in assay [4]; 7.15 µM in [5]; 1.03 µM in assay [6]. For the same compound, the GI50 in assay [7] is 9.89 µM; in assay [8] it was 9.12 µM. Further, the TGI in [10] came to 10.9 µM; in assay [2], 19.1 µM; in assay [3], 15 µM; in [4], 3.28 µM; in assay [5] it was 15.8 µM; in assay [6], 2.35 µM. Also, the TGI in assay [7] came out at 18.7 µM; in assay [8] it was 17 µM.
As for `Cc1sc2c(c1C)C(c1ccc(Cl)cc1)=N[C@@H](CC(=O)NCCCN1CCN(C)CC1)c1nnc(C)n1-2`, the GI50 in assay [10] was 0.684 µM; in assay [1], 0.198 µM; in assay [2], 0.0746 µM; in assay [3], 1.05 µM; in assay [4] it was 0.607 µM; in assay [5] it was 6.36 µM. Further, the GI50 in assay [9] is under 0.0106 µM; in assay [6], over 100 µM; in [8], 0.214 µM. For the same compound, the TGI in [10], in assay [1], in assay [2], in [3], in assay [4] and in assay [5] was over 100 µM in each case. Besides, the TGI in [9] is 0.16 µM; in assay [6] it was over 100 µM; in [8], over 100 µM.
As for `Nc1nn(C(=O)Nc2c(F)cccc2F)c2ccccc12`, the GI50 in assay [10] is 45.3 µM; in [1], 74.6 µM; in [2] it was 55.1 µM; in [3] it was over 100 µM; in [4], 31.4 µM; in [5], 39.7 µM. The GI50 in assay [6] is 38.3 µM; in assay [7] it was over 100 µM; in assay [8] it was 43.9 µM. The TGI in assay [10], in assay [1], in [2], in assay [3], in [4] and in assay [5] was over 100 µM each time. Moreover, the TGI in assay [6], in [7] and in [8] was over 100 µM in each case.
Consider `O=C(c1ccccc1)c1nc2ccc(C(F)(F)F)cc2nc1N1CCN(c2ccccc2)CC1`, for which the GI50 was 26.2 µM in assay [10]; 34.6 µM in assay [2]; 47.1 µM in [3]; 52.9 µM in assay [4]; 15.9 µM in assay [5]; 34.7 µM in assay [6]. Further, the GI50 was 30.7 µM in assay [7] and 18.5 µM in assay [8]. In addition, the concentration for total growth inhibition (TGI) in [10] is 74.7 µM; in [2] it was 91.3 µM; in assay [3] it was over 100 µM; in assay [4] it was over 100 µM; in assay [5], 32.7 µM; in assay [6], over 100 µM. Further, the TGI in assay [7] came out at 74.7 µM; in [8] it was 43.2 µM.
For `O=C1CC(N2C(=O)/C(=C/C(Cl)=C\c3ccc([N+](=O)[O-])cc3)SC2=S)C(=O)N1c1ccc(O)cc1` (stereo not drawn), the GI50 in assay [10] was 1.15 µM; in assay [1] it was 0.847 µM; in assay [2] it was 1.86 µM; in assay [3] it was 0.906 µM; in assay [4] it was 1.72 µM; in assay [5] it was 1.92 µM. The figures for the GI50 in [6], in assay [7] and in assay [8] were 0.684 µM, 1.92 µM and 1.67 µM, respectively. Moreover, the TGI in assay [10] was 2.42 µM; in [1], 8.78 µM; in [2], 4.23 µM; in assay [3], 2.87 µM; in [4], 3.81 µM; in [5] it was 3.66 µM. The TGI in assay [6] was found to be 2.28 µM; in [7], 3.79 µM; in [8], 3.38 µM.

For the origin of these results see PubChem BioAssay (NCI).
